Drawing on PubChem BioAssay (NCI), this text covers TGI for four compounds.

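Grown in 96-well plates, cells were treated for 48 hours with each compound at five concentrations. Insufficient inhibition: endpoint recorded as highest concentration tested. TGI is the concentration that stops growth completely.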 Bounds are passed on as bounds.

The subject of the first assay is DLD-1 colon. Nature of the assay: NCI tumour cell line growth inhibition, 48 h.
`NC1=NN(c2ccccc2)C(=O)C1C(=O)CCC(=O)Nc1cccc(Cl)c1` (stereo not drawn) returned a TGI greater than 100 µM.

In the case of `N#C/C(=C/c1cccc(Oc2ccccc2)c1)c1ccccc1`, the TGI was greater than 100 µM.

In turn, `COc1cc(NS(=O)(=O)c2ccc(C)cc2)c2nccnc2c1` registered a TGI greater than 100 µM.

In the case of `O=c1oc(-c2ccccc2)cn1-c1ccccc1`, the TGI was greater than 100 µM.

Another assay deals with SF-268 CNS. Nature of the assay: NCI tumour cell line growth inhibition, 48 h.
In the case of `NC1=NN(c2ccccc2)C(=O)C1C(=O)CCC(=O)Nc1cccc(Cl)c1` (stereo not drawn), the TGI is greater than 100 µM.

As to `N#C/C(=C/c1cccc(Oc2ccccc2)c1)c1ccccc1`, the TGI was greater than 100 µM.

As to `COc1cc(NS(=O)(=O)c2ccc(C)cc2)c2nccnc2c1`, the TGI stood at 93.7 µM.

The test system of another assay is LOX IMVI melanoma. Nature of the assay: NCI tumour cell line growth inhibition, 48 h.
With `NC1=NN(c2ccccc2)C(=O)C1C(=O)CCC(=O)Nc1cccc(Cl)c1` (stereo not drawn), the TGI is greater than 100 µM.

In turn, `N#C/C(=C/c1cccc(Oc2ccccc2)c1)c1ccccc1` gave a TGI greater than 100 µM.

As for `COc1cc(NS(=O)(=O)c2ccc(C)cc2)c2nccnc2c1`, the TGI was greater than 100 µM.

Compound `O=c1oc(-c2ccccc2)cn1-c1ccccc1` returned a TGI greater than 100 µM.

A further assay concerns HCT-15 colon. Nature of the assay: NCI tumour cell line growth inhibition, 48 h.
`NC1=NN(c2ccccc2)C(=O)C1C(=O)CCC(=O)Nc1cccc(Cl)c1` (stereo not drawn) showed a TGI greater than 100 µM.

Turning to `N#C/C(=C/c1cccc(Oc2ccccc2)c1)c1ccccc1`, the TGI was greater than 100 µM.

On to `COc1cc(NS(=O)(=O)c2ccc(C)cc2)c2nccnc2c1`, for which the TGI is greater than 100 µM.

Another assay deals with DMS 273 small cell lung. Nature of the assay: NCI tumour cell line growth inhibition, 48 h.
`NC1=NN(c2ccccc2)C(=O)C1C(=O)CCC(=O)Nc1cccc(Cl)c1` (stereo not drawn) had a TGI greater than 100 µM.

Take `COc1cc(NS(=O)(=O)c2ccc(C)cc2)c2nccnc2c1`: the TGI was greater than 100 µM.

With `O=c1oc(-c2ccccc2)cn1-c1ccccc1`, the TGI was greater than 100 µM.

Another assay relates to HL-60(TB) leukemia. Nature of the assay: NCI tumour cell line growth inhibition, 48 h.
`NC1=NN(c2ccccc2)C(=O)C1C(=O)CCC(=O)Nc1cccc(Cl)c1` (stereo not drawn) returned a TGI greater than 100 µM.

`N#C/C(=C/c1cccc(Oc2ccccc2)c1)c1ccccc1` displayed a TGI greater than 100 µM.

`COc1cc(NS(=O)(=O)c2ccc(C)cc2)c2nccnc2c1`: the TGI is 51.7 µM.

`O=c1oc(-c2ccccc2)cn1-c1ccccc1`: the TGI was greater than 100 µM.

A further assay relates to IGROV1 ovarian. Nature of the assay: NCI tumour cell line growth inhibition, 48 h.
For `NC1=NN(c2ccccc2)C(=O)C1C(=O)CCC(=O)Nc1cccc(Cl)c1` (stereo not drawn), the TGI was greater than 100 µM.

The compound `N#C/C(=C/c1cccc(Oc2ccccc2)c1)c1ccccc1` had a TGI greater than 100 µM.

Turning to `COc1cc(NS(=O)(=O)c2ccc(C)cc2)c2nccnc2c1`, the TGI was greater than 100 µM.

The next assay has as its system U251 CNS. Nature of the assay: NCI tumour cell line growth inhibition, 48 h.
`NC1=NN(c2ccccc2)C(=O)C1C(=O)CCC(=O)Nc1cccc(Cl)c1` (stereo not drawn) gave a TGI greater than 100 µM.

As to `N#C/C(=C/c1cccc(Oc2ccccc2)c1)c1ccccc1`, the TGI was greater than 100 µM.

In the case of `COc1cc(NS(=O)(=O)c2ccc(C)cc2)c2nccnc2c1`, the TGI turned out to be 89.3 µM.

Compound `O=c1oc(-c2ccccc2)cn1-c1ccccc1` displayed a TGI greater than 100 µM.

The test system of another assay is DMS 114 small cell lung. Nature of the assay: NCI tumour cell line growth inhibition, 48 h.
The compound `NC1=NN(c2ccccc2)C(=O)C1C(=O)CCC(=O)Nc1cccc(Cl)c1` (stereo not drawn) showed a TGI greater than 100 µM.

`N#C/C(=C/c1cccc(Oc2ccccc2)c1)c1ccccc1`: the TGI is greater than 100 µM.

Turning to `COc1cc(NS(=O)(=O)c2ccc(C)cc2)c2nccnc2c1`, the TGI turned out to be 40.8 µM.

Another assay has as its system SW-620 colon. Nature of the assay: NCI tumour cell line growth inhibition, 48 h.
Compound `NC1=NN(c2ccccc2)C(=O)C1C(=O)CCC(=O)Nc1cccc(Cl)c1` (stereo not drawn) came in with a TGI greater than 100 µM.

`N#C/C(=C/c1cccc(Oc2ccccc2)c1)c1ccccc1` returned a TGI greater than 100 µM.

`COc1cc(NS(=O)(=O)c2ccc(C)cc2)c2nccnc2c1` displayed a TGI greater than 100 µM.

The subject of another assay is OVCAR-5 ovarian. Nature of the assay: NCI tumour cell line growth inhibition, 48 h.
Compound `NC1=NN(c2ccccc2)C(=O)C1C(=O)CCC(=O)Nc1cccc(Cl)c1` (stereo not drawn) had a TGI greater than 100 µM.

`N#C/C(=C/c1cccc(Oc2ccccc2)c1)c1ccccc1` displayed a TGI greater than 100 µM.

`COc1cc(NS(=O)(=O)c2ccc(C)cc2)c2nccnc2c1` had a TGI greater than 100 µM.

The test system of a further assay is SNB-19 CNS. Nature of the assay: NCI tumour cell line growth inhibition, 48 h.
Turning to `NC1=NN(c2ccccc2)C(=O)C1C(=O)CCC(=O)Nc1cccc(Cl)c1` (stereo not drawn), the TGI was greater than 100 µM.

In turn, `COc1cc(NS(=O)(=O)c2ccc(C)cc2)c2nccnc2c1` showed a TGI greater than 100 µM.

For `O=c1oc(-c2ccccc2)cn1-c1ccccc1`, the TGI is greater than 100 µM.

The next assay has as its system UACC-62 melanoma. Nature of the assay: NCI tumour cell line growth inhibition, 48 h.
`NC1=NN(c2ccccc2)C(=O)C1C(=O)CCC(=O)Nc1cccc(Cl)c1` (stereo not drawn): the TGI is greater than 100 µM.

Regarding `N#C/C(=C/c1cccc(Oc2ccccc2)c1)c1ccccc1`, the TGI was greater than 100 µM.

`COc1cc(NS(=O)(=O)c2ccc(C)cc2)c2nccnc2c1` yielded a TGI of 34.6 µM.

The next assay concerns OVCAR-4 ovarian. Nature of the assay: NCI tumour cell line growth inhibition, 48 h.
Turning to `NC1=NN(c2ccccc2)C(=O)C1C(=O)CCC(=O)Nc1cccc(Cl)c1` (stereo not drawn), the TGI was greater than 100 µM.

In the case of `N#C/C(=C/c1cccc(Oc2ccccc2)c1)c1ccccc1`, the TGI was greater than 100 µM.

`COc1cc(NS(=O)(=O)c2ccc(C)cc2)c2nccnc2c1` registered a TGI greater than 100 µM.

In a further assay the test system is SF-295 CNS. Nature of the assay: NCI tumour cell line growth inhibition, 48 h.
For `NC1=NN(c2ccccc2)C(=O)C1C(=O)CCC(=O)Nc1cccc(Cl)c1` (stereo not drawn), the TGI is greater than 100 µM.

As to `N#C/C(=C/c1cccc(Oc2ccccc2)c1)c1ccccc1`, the TGI was greater than 100 µM.
